Reference: patent US11920125B2, “Methods and agricultural compositions for preventing or controlling plant diseases” (Tenfold Technologies, LLC, priority 2017, dated 2024)

What was measured:
[1] = tested on: Pythium irregulare; assay: Pot assay, bacterial isolates with or without fungicide Satori for control of Pythium irregulare on soybean; type: in vivo
Description: In order to test the performance of bacterial isolates, with or without the presence of the fungicide Satori® (active ingredient is azoxystrobin), samples were applied as simulated in-furrow by pipetting in 1 ml over each seed after the seeds were placed in a 1 cm deep depression. The combination was prepared by combining each bacterial whole broth (MS1479, MS2379, MS2414, or MS2820) (which was grown in GB6-M8) with an equal volume (1:1) of Satori®. The agar slurry inoculation method was used after blending two agar cultures of P. irregulare in 200 ml RO water and then mixed with 4 L of peat-lite mix in a cement mixer. Five soybean seeds (genotype WS2620) were sown in each pot with 1 ml treatment over each seed (in-furrow simulation). Then the pots were incubated at 16° C. for 1 week and then 23° C. for another week before evaluation. The disease severity scale: 1=80-100%, 2=60-79%, 3=40-59%, 4=20-39%, 5=1-19%, and 6=0% damaged roots. (Table 16).

[2] = tested on: Rhizoctonia; assay: Rhizoctonia control field trial, soybean seed treatment, Fisher, Indiana; conditions: isolates (GB6-M) 20 μl WB/Seed; Fludioxonil 0.02 mg/Seed
Description: For all treatments, the target concentration is 20 μl water/seed, which corresponds to 60 ml/460 g seeds. Sixty (60) ml liquid was added to every 460 g soybean seeds for a total of six times. Each time, 10 ml of liquid was added to the 460 g seeds and mixed for 15 seconds. Coated seeds were dried for 5-10 minutes under ventilation between the additions. Final coated seeds were dried overnight in a biocontainment hood.

[3] = tested on: R. solani; assay: Pot assay, microbial drench treatments on Ozark soybean seedlings in pots infested with R. solani; type: in vivo; conditions: chemical control at 0.06 g/lb of soybean seeds
Description: In pot assays, WB or its dilutions were applied as a seed coating or as a a simulated in-furrow application in pots containing soil inoculated with the pathogen. Measurements of the percent of emergence, plant growth stage, and disease rating were used to assess biocontrol efficacy. Whole broth (WB) or WB dilutions were applied either as a simulated in-furrow treatment or a seed treatment applied to soybean seed. For simulated in-furrow application, 1 ml of biocontrol treatment or negative and positive controls was pipetted over the seed placed in 0.5 cm deep depressions made in peat-lite mix potting medium inoculated with the pathogen and prior to covering with the potting medium. Seed treatments were applied by coating soybean seed with the biocontrol and control treatments prior to planting into an inoculated potting medium. The negative control was reverse osmosis-purified (RO) water applied to seed in inoculated pots. The positive controls were Satori® (azoxystrobin) and Subtilex® (Bacillus subtilis strain MBI 600) applied at the labelled rates. In addition, a mock-inoculated treatment without pathogen inoculation was included in each test. Inoculation was done by thoroughly mixing 1 L of a slurry, made by blending two fully Rhizoctonia solani-colonized potato dextrose cultures in 200 ml RO water, with 4 L peat-lite mix (e.g., Sunshine LC1 potting mix) using a cement mixer. Experimental units were five seeds per pot and the treatments were arranged in a completely random design with four replicates. The tests were conducted on light carts illuminated with LED lamps (16 hour day/8 hour night) for 7-10 days at 26-28° C. The pots were irrigated as needed with RO water. Measurements of the percent emergence, plant growth stage (Munger, et al., 2008), and disease severity rating (0, no disease, to 5, dead plant) were collected from each plant at the end of each test, and the means of the experimental units were analyzed using JMP version 11 (SAS, Cary, NC).
In a separate pot assay, treatments were applied directly as a drench.

Q: With COCC(=O)N(c1c(C)cccc1C)C(C)C(=O)OC (centres unmarked) [Metalaxyl] as the molecule, how does the Plant development ([1]; five soybean seeds per pot, 1 ml treatment over each seed) read?
A: 12.55

Q: What about the Plant emergence ([1]; five soybean seeds per pot, 1 ml treatment over each seed, 16° C. 1 week then 23° C. 1 week) of the same molecule?
A: 5

Q: What about the Disease severity ([1]; scale 1=80-100%, 2=60-79%, 3=40-59%, 4=20-39%, 5=1-19%, 6=0% damaged roots (higher = healthier)) of the same molecule?
A: 4.35

Q: Which results are given for N#Cc1c[nH]cc1-c1cccc2c1OC(F)(F)O2 [Fludioxonil]?
A: Stand (No of plants per acre) at 11 DAP [2]: 2614 plants per acre; Stand (No of plants per acre) at 16 DAP [2]: 20038 plants per acre; Stand (No of plants per acre) at 49 DAP [2]: 16939 plants per acre; Total # Diseased per plot (187.5 ft^2 per plot area) [2]: 7.3; Vigor Rating (1-5: 1 = worst, 5 = best) [2]: 1.8; Disease Rating ([3]; 0 = no disease to 5 = plant dead, 7 days): 3.0^F; # Emerged Plants ([3]; 7 days after sowing, of four seeds per pot): 2.0^B; Plant Growth Stage ([3]; scale 1-4, 7 days): 2.2^B
